From patent US7863446B2, “Heterocycles” (Orchid Research Laboratories Limited, priority 2006, dated 2011) come the findings set out here.

The test system of experiment [1] is TNF-α. The experiment is described as follows: LPS induced sepsis for measurement of TNF-α inhibition in mice. It is filed as in vivo. Conditions: 50 mg/kg, oral, mice, serum 90 minutes after LPS. As for the experimental part: LPS Induced Sepsis for Measurement of TNF-α Inhibition in Mice
The LPS induced sepsis model in mice was performed as described by Les sekut et al (J Lab Clin Med 1994; 124:813-20). Female Swiss albino mice were selected and the body weights were equivalent within each group. The mice were fasted for 20 hours with free access to water. The mice were dosed orally with the test compound suspended in vehicle containing 0.5% Tween 80 in 0.25% Carboxy-methylcellulose sodium salt. The control mice were administered the vehicle alone. After 30 minutes of oral dosing, mice were injected with 500 μg of Lipopolysaccharide (Escherichia coli, LPS: B4 from Siga) in phosphate buffer saline solution into the intraperitoneal cavity of the mice. After 90 minutes of LPS administration mice were bled via retro-orbital sinus puncture. Blood samples were stored overnight at 4° C. Serum samples were collected by centrifuging the samples at 4000 rpm for 15 minutes at 4° C. Immediately the serum samples were analysed for TNF-α levels using commercially available mouse TNF-α ELISA kit (Amersham Biosciences) and assay was performed by the manufacturer instruction.
ED50 Measurement of TNF alpha Inhibition in Mice Sepsis Model

The test system of experiment [2] is TNF-α. The experiment is described as follows: In vitro measurement of TNF-α in human PBMC (LPS stimulated). The settings on record: for inhibition at 1 µM: NA = No activity, read-out: TNF-α Inhibition (%) at Conc. (1 μM); for inhibition at 10 µM: read-out: TNF-α Inhibition (%) at Conc. (10 μM). The experiment is classed as cell-based. As for the experimental part: In Vitro Measurement of Tumor Necrosis Factor Alpha (TNF-α)
This assay determines the effect of test compounds on the production of TNF α in human Peripheral Blood Mononuclear Cells (PBMC). Compounds were tested for their ability to inhibit the activity of TNF α in human PBMC. PBMC were isolated from blood (of healthy volunteers) using BD Vacutainer CPT™ (Cell preparation tube, BD Bio Science) and suspended in RPMI medium (Physiol. Res. 52: 593-598, 2003). The test compounds were pre-incubated with PBMC (0.5 million/incubation well) for 15 minutes at 37° C. and then stimulated with Lipopolysaccharide (Escherichia coli: B4; 1 μg/ml) for 18 hours at 37° C. in 5% CO2. The levels of TNF-α in the cell culture medium were estimated using enzyme-linked immunosorbent assay performed in a 96 well format as per the procedure of the manufacturer (Cayman Chemical, Ann Arbor, USA).

Experiment [3] addresses T1, purified recombinant COX-2 (Homo sapiens, UniProt P35354).
T1 sequence (P35354 18-604): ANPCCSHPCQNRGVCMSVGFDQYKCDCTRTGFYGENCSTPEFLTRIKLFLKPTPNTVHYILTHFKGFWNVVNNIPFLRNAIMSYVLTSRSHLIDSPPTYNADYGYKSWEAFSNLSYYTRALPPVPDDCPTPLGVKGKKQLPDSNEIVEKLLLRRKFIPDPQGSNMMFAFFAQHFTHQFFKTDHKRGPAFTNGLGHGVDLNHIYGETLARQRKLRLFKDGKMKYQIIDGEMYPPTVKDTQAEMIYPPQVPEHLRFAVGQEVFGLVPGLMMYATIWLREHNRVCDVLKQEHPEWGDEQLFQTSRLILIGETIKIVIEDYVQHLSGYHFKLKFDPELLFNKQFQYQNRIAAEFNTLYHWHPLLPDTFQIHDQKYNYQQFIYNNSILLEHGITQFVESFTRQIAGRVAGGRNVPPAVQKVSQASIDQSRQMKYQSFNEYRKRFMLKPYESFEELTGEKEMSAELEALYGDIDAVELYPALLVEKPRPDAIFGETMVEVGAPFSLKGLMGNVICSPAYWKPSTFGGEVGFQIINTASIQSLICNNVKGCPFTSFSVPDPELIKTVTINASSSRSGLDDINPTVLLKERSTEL
As to the kind of experiment: COX-2 enzyme based assay. It is filed as biochemical. The settings on record: NA = No activity, read-out: % Inhibition in rEnzyme Assay COX-2. As for the experimental part: (§1) COX-1 and COX-2 Enzyme Based Assay
(§2) COX-1 and COX-2 enzyme based assays were carried out to check the inhibitory potential of the test compounds on the production of prostaglandin by purified recombinant COX-1/COX-2 enzyme (Proc. Nat. Acad. Sci. USA, 88, 2692-2696, 1991; J. Clin. Immunoassay 15, 116-120, 1992) In this assay, the potential of the test compound to inhibit the production of prostaglandin either by COX-1 or COX-2 from arachidonic acid (substrate) was measured. This was an enzyme based in-vitro assay to evaluate selective COX inhibition with good reproducibility.
(§3) Arachidonic acid was converted to PGH2 (Intermediate product) by COX1/COX-2 in the presence or absence of the test compound. The reaction was carried out at 37° C. and after 2 minutes it was stopped by adding 1M HCl. Intermediate product PGH2 was converted to a stable prostanoid product PGF2αby SnCl2 reduction. The amount of PGF2α, produced in the reaction was inversely proportional to the COX inhibitory potential of the test compound. The prostanoid product was quantified via enzyme immunoassay (EIA) using a broadly specific antibody that binds to all the major forms of prostaglandin, using Cayman ELISA kit as per the procedure outlined by the manufacturer (Cayman Chemicals, Ann Arbor, USA).

Experiment [4] addresses purified recombinant COX-1 (Homo sapiens, UniProt P23219). As to the kind of experiment: COX-1 enzyme based assay. The settings on record: NA = No activity, read-out: % Inhibition in rEnzyme Assay COX-1. The experiment is classed as biochemical. As for the experimental part: as §1, §2, §3
Another experiment concerns PDE4. As to the kind of experiment: PDE4 activity. The experiment is classed as biochemical. Conditions: source Human U937 cells. As for the experimental part: PDE4 Activity PDE4 inhibition was measured by following a literature assay procedure (Cortizo J et al., Br J Pharmacol., 1993, 108: 562-568. The assay method involves the following conditions. • Source: Human U937 cells • Substrate: 1.01 μM [^3H] camp+camp • Vehicle: 1% DMSO • Pre-Incubation Time/Temperature: 15 minutes at 25° C. • Incubation Time/Temperature. 20 minutes at 25° C. • Incubation buffer: 50 mM Tris-HCl, pH 7.5, 5 mM MgCl2 • Quantitation method: Quantitation of [^3H] Adenosine • Significance criteria: >50% of max stimulation or inhibition The results are tabulated as shown in the table XIII.

purified recombinant COX-1, sequence (P23219 24-599): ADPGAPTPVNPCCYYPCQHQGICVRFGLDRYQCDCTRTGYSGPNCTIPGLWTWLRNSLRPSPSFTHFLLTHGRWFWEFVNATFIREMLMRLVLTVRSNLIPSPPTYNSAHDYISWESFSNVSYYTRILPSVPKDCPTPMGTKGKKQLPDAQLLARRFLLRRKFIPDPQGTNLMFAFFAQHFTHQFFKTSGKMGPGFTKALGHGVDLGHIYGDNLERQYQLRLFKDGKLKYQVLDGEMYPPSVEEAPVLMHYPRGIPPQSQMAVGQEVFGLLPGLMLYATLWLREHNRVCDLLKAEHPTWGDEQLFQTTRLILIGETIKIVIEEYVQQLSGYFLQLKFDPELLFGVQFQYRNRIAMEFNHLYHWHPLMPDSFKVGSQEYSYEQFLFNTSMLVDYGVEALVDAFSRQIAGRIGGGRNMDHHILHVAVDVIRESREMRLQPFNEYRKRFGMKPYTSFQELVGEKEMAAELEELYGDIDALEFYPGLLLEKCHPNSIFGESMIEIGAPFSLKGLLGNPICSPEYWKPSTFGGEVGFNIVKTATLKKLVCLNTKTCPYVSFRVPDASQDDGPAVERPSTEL

By inhibition is commonly meant the percentage by which the read-out fell short of the control. For `NS(=O)(=O)c1ccc(-c2c(-c3ccc(F)cc3)nc(C(F)(F)F)nc2N2CCNCC2)cc1` [Example 30, 4-[4-(4-Fluorophenyl)-6-piperazin-1-yl-2-(trifluoromethyl)pyrimidin-5-yl]benzenesulfonamide], the “TNF-α Inhibition (%) at 50 mg/kg” value in the experiment with TNF-α [1] amounted to 84.84%. For the same compound, in the experiment with TNF-α [2], the inhibition at 1 µM came to 43.2% and the inhibition at 10 µM came out at 100%.

`NS(=O)(=O)c1cccc(-c2c(-c3ccc(F)cc3)nc(C(F)(F)F)nc2N2CCN(c3ccccn3)CC2)c1` [Example 53, 3-[4-(4-Fluorophenyl)-6-(4-pyridin-2-ylpiperazin-1-yl)-2-(trifluoromethyl)pyrimidin-5-yl]benzenesulfonamide]: in experiment [3], the inhibition at 1 µM was 20% and the inhibition at 10 µM amounted to 26.7%. Besides, the “TNF-α Inhibition (%) at 50 mg/kg” value in the experiment on TNF-α [1] is recorded as 70.93%. Moreover, in experiment [4], the inhibition at 1 µM stood at 46.3% and the inhibition at 10 µM came out at 56.9%.

In the case of `NS(=O)(=O)c1cccc(-c2c(-c3ccc(F)cc3)nc(C(F)(F)F)nc2N2CCN(c3ncccn3)CC2)c1` [Example 54, 3-[4-(4-Fluorophenyl)-6-(4-pyrimidin-2-ylpiperazin-1-yl)-2-(trifluoromethyl)pyrimidin-5-yl]benzenesulfonamide], the inhibition at 10 µM in experiment [3] amounted to 13.7%; in experiment [4] it was 45.5%. In addition, in the experiment on TNF-α [1], the “TNF-α Inhibition (%) at 50 mg/kg” value is 63.44%. Further, in experiment [4], the inhibition at 1 µM amounted to 34.4%.

Take `NS(=O)(=O)c1cccc(-c2c(-c3ccccc3)nc(C(F)(F)F)nc2N2CCN(c3ncccn3)CC2)c1` [Example 57]: the inhibition at 1 µM in experiment [3] was 8.29%; with TNF-α [2] it was 84.5%. Also, the inhibition at 10 µM in experiment [3] amounted to 0.66%; in the experiment on TNF-α [2], 88.9%; in experiment [4], 5.7%. The “TNF-α Inhibition (%) at 50 mg/kg” value in the experiment with TNF-α [1] is recorded as 52.02%.

Consider `NS(=O)(=O)c1cccc(-c2c(-c3ccc(F)cc3)nc(C(F)(F)F)nc2N2CCN(S(=O)(=O)C(F)(F)F)CC2)c1` [Example 77, 5-(3-Aminosulfonylphenyl)-4-(4-fluorophenyl)-2-(trifluoromethyl)-6-{4-[(trifluoromethyl)sulfonyl]piperazin-1-yl}pyrimidine], for which the “PDE4 inhibition at 10 μM (%)” value with PDE4 is listed as 94%.

For `N#CCCN1CCN(c2nc(C(F)(F)F)nc(-c3ccc(F)cc3)c2-c2cccc(S(N)(=O)=O)c2)CC1` [Example 99, 3-{4-[4-(2-Cyanoethyl)piperazin-1-yl]-6-(4-fluorophenyl)-2-(trifluoromethyl)pyrimidin-5-yl}benzenesulfonamide], the “PDE4 inhibition at 10 μM (%)” value with PDE4 is 92%.

Turning to `NS(=O)(=O)c1cccc(-c2c(-c3ccc(F)cc3)nc(C(F)(F)F)nc2N2CCN(C(=O)C(F)(F)F)CC2)c1` [Example 108, 3-{6-(4-Fluorophenyl)-4-[4-(trifluoroacetyl)piperazin-1-yl]-2-(trifluoromethyl)pyrimidin-5-yl}benzenesulfonamide], the “PDE4 inhibition at 10 μM (%)” value with PDE4 was found to be 90%.

Regarding `NS(=O)(=O)c1cccc(-c2c(-c3ccccc3)nc(C(F)(F)F)nc2N2CCN(c3ccc(C(F)(F)F)cn3)CC2)c1` [Example 115], the values for the inhibition at 10 µM (in experiment [3]; with TNF-α [2]; in experiment [4]) were 7.03%, 58.3% and 19.2%, respectively. Moreover, the “TNF-α Inhibition (%) at 50 mg/kg” value in the experiment on TNF-α [1] stood at 54.23%. Moreover, the inhibition at 1 µM in the experiment with TNF-α [2] amounted to 37.8%; in experiment [4] it was 6.29%.

As for `NS(=O)(=O)c1cccc(-c2nc(C(F)(F)F)nc(-n3ccnc3)c2-c2ccccc2)c1` [Example 166, 3-[4-(1H-imidazol-1-yl)-5-phenyl-2-(trifluoromethyl)pyrimidin-6-yl]benzenesulfonamide], in the experiment on PDE4, the “PDE4 inhibition at 10 μM (%)” value was 82%.

Turning to `NS(=O)(=O)c1cccc(-c2c(-c3ccccc3)nc(C(F)(F)F)nc2N2CCN(C(=O)C(F)(F)F)CC2)c1` [Example 172, 3-{6-Phenyl-4-[4-(trifluoroacetyl)piperazin-1-yl]-2-(trifluoromethyl)pyrimidin-5-yl}benzenesulfonamide], the “PDE4 inhibition at 10 μM (%)” value in the experiment with PDE4 was 87%.

With `Fc1ccc(-c2nc(C(F)(F)F)nc(NC3CC3)c2-c2ccccc2)cc1` [Example 174, N-Cyclopropyl-6-(4-fluorophenyl)-5-phenyl-2-(trifluoromethyl)pyrimidin-4-amine], the “PDE4 inhibition at 10 μM (%)” value with PDE4 worked out at 88%.

Take `NS(=O)(=O)c1cccc(-c2c(-c3ccccc3)nc(C(F)(F)F)nc2N2CCC(=O)CC2)c1` [Example 178, 3-[6-Phenyl-4-(4-oxopiperidin-1-yl)-2-(trifluoromethyl)pyrimidin-5-yl]benzenesulfonamide]: in the experiment on PDE4, the “PDE4 inhibition at 10 μM (%)” value was 84%.
